{"source": "patent US11419829B2", "about": "“Use of cannabidiol in combination with 5-HT2B receptor agonists or amphetamines in the treatment of epilepsy” (GW Research Limited, priority 2017, dated 2022)", "key": {"[1]": {"biological_target": "T1, human 5-HT2B receptor (Homo sapiens, UniProt P41595)", "T1 construct": "expressed in transfected cells; host or cells: CHO cells", "T1 sequence (P41595 whole entry)": "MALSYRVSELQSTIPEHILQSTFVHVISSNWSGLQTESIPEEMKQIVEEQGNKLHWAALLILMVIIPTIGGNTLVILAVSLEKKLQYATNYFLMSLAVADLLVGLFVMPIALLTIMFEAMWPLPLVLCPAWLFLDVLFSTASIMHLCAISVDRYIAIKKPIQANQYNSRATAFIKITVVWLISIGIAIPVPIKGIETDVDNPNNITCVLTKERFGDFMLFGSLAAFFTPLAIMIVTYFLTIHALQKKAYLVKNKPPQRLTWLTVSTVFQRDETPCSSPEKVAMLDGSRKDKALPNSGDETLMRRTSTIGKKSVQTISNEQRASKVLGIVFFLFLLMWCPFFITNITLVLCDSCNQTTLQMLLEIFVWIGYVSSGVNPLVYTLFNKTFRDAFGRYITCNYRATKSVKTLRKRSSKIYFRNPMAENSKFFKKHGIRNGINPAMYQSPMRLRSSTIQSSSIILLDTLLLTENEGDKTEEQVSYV", "assay": "5-HT2B agonist effect, IP1 production (HTRF) in transfected CHO cells", "type": "cell-based", "conditions": "IP1 production vs 1 μM 5-HT control", "protocol": "(§1) Evaluation of the activity of CBD and 7-OH-CBD at the human 5-HT2B receptor was undertaken in transfected CHO cells. Such activity as either an agonist or antagonist was determined by measuring their effects IP1 production using the HTRF detection method.\n(§2) Cells were suspended in a buffer containing 10 mM Hepes/NaOH (pH 7.4), 4.2 mM KCl, 146 mM NaCl, 1 mM CaCl2), 0.5 mM MgCl2, 5.5 mM glucose and 50 mM LiCl, then distributed in microplates at a density of 4.104 cells/well and incubated for 30 min at 37° C. in the presence of buffer (basal control), test compound or reference agonist.\nFor stimulated control measurement, separate assay wells contain 1 μM 5-HT. Following incubation, the cells are lysed and the fluorescence acceptor (D2-labeled IP1) and fluorescence donor (anti-IP1 antibody labelled with europium cryptate) are added.\nAfter 60 min at room temperature, the fluorescence transfer is measured at A ex=337 nm and A em=620 and 665 nm using a microplate reader (Rubystar, BMG).\n(§3) The IP1 concentration is determined by dividing the signal measured at 665 nm by that measured at 620 nm (ratio).\nThe results are expressed as a percent of the control response to 1 μM 5-HT. The standard reference agonist is 5-HT, which is tested in each experiment at several concentrations to generate a concentration-response curve from which its EC50 value is calculated."}, "[2]": {"biological_target": "T1, human 5-HT2B receptor", "assay": "5-HT2B antagonist effect, IP1 production (HTRF) in transfected CHO cells", "type": "cell-based", "conditions": "antagonism of 30 nM 5-HT", "protocol": "as §1\nas §2, with “preincubated” for “incubated”, “5” for “30”, “room temperature” for “37° C.”, “antagonist.” for “agonist.”\nThereafter, the reference agonist 5-HT is added at a final concentration of 30 nM. […] Following 30 min incubation at 37° C., the cells are lysed and the fluorescence acceptor (D2-labeled IP1) and fluorescence donor (anti-IP1 antibody labelled with europium cryptate) are added.\nAfter 60 min at room temperature, the fluorescence transfer is measured at ex=337 nm and λ em=620 and λ 665 nm using a microplate reader (Rubystar, BMG).\nas §3\nThe results are expressed as a percent inhibition of the control response to 30 nM 5-HT. […]"}, "[3]": {"assay": "Plasma concentrations in human clinical trials in epilepsy", "type": "in vivo"}, "[4]": {"biological_target": "T2, human recombinant 5-HT2C receptor (Homo sapiens, UniProt P28335)", "T2 sequence (P28335 33-458)": "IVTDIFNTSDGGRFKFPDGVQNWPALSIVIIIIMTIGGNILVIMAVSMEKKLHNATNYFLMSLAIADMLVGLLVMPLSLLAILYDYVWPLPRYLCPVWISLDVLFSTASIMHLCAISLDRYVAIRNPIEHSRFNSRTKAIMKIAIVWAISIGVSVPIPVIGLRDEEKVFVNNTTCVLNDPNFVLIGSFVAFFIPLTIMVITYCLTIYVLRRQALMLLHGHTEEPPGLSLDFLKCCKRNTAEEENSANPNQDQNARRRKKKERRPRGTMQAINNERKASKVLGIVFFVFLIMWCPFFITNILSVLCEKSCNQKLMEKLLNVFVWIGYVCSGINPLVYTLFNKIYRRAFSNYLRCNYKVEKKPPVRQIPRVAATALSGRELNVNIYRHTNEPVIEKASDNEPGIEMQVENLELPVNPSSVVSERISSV", "assay": "Inhibition of specific binding at human recombinant 5-HT2C receptors (FIG. 2B)"}, "[5]": {"system": "MES-induced tonic seizures", "assay": "Maximal electroshock seizure (MES) test in mice with isobolographic/CalcuSyn DDI analysis", "type": "in vivo, mouse", "conditions": "for Dose Reduction Index (DRI): in CBD/FEN combination vs drug alone; for doses with statistically significant (p<0.05) anticonvulsant effect vs vehicle: Experiment A, single drug; for doses with statistically significant (p<0.05) anticonvulsant effect vs vehicle / effect on incidence of MES vs vehicle, drug alone: i.p.; for doses with statistically significant (p<0.05) anticonvulsant effect vs vehicle / ED50: mouse MES; for effect on incidence of MES vs vehicle, drug alone: Experiment B, low doses alone; for ED50: median-effect curves, drug alone, read-out: potency (Dm or ED50)", "protocol": "The study was performed in two phases. […] Secondly, (Experiment B), drug-drug interactions (DDI) and anticonvulsant activities for CBD/FEN in combination were determined.\nExperiment A was performed using 160 male, C57Bl6 mice, weighing between 20.1-30.1 g, and Experiment B was performed using 126 male, C57Bl6 mice, weighing between 19.2-26.1 g, purchased from a licensed breeder (Charles River, UK).\nThe following drugs were used in this study: Purified botanical CBD provided by GW Research Ltd., fenfluramine hydrochloride (FEN) purchased from Sigma Merck. The control vehicle used was 1:1:18 (5% ethanol, 5% Kolliphor EL, 90% saline). CBD and FEN were dissolved in the same control vehicle for comparison.\nAnimals were dosed (10 ml/kg) i.p. at 60 min for CBD and 30 min for FENS pre-treatment times, prior to MES and before plasma and brain sampling immediately post-MES test.\nHere, doses were selected based on known ED50 and NOAELs for all the drugs and were: CBD-BOT [10, 30, 50, 70 and 100 mg/kg] and FEN [1, 2, 3, 5 and 10 mg/kg]. The number of animals in each of these groups were 10 (n=10), and 160 in total.\nFor Experiment B, in addition to the vehicle group, three dose groups were used for each of the treatments. Here, doses were selected based on analysis of the data obtained from Experiment A according to methods described for determination of isobolographic interactions. Doses as CBD/FEN combination were [20.9/2.5, 13.6/3.9 and 28.3/1.2 mg/kg]. The number of animals in each of these groups were 10 (n=10), and with individual CBD, FEN and VPA doses n=190 in total.\nElectroconvulsions were produced by application of a fixed current intensity of 30 mA (0.2 sec duration) delivered via corneal electrodes. […] Mice were individually assessed for production of seizure determined by presence or absence of tonic hindlimb extension following current application.\nData were collected by an observer unaware of the treatment received by each animal.\nThe protective activities of CBD and FEN administered alone were evaluated and expressed as effective doses (ED50; mg/kg based on dose administered) and effective exposures (EE50; μM based on bioanalysis of brain samples) where EX50 is defined as the dose or brain exposure required to protect 50% of mice from MES-induced tonic seizures. CBD/FEN combinations were evaluated at 3 fixed ratios (1:3, 1:1 and 3:1) based on an EE50 derived from an assumption of linearly additive effects of EEs of the two drugs in combination.\nFor the three fixed-ratio CBD/FEN combinations (1:3, 1:1 and 3:1), calculations were based on Loewe's equation of additivity as follows; x/EE50(CBD)+y/EE50(FEN)=1; where x=the exposure of CBD and y=the exposure at which […], when co-administered with FEN, should theoretically exert the desired/additive 50% effect. Subsequently, CBD and FEN doses corresponding to 50% of respective EE50 were used for the CBD/FEN 1:1 ratio. Similarly, dose proportions were calculated for the CBD/FEN 1:3 and 3:1 ratios based on theoretical additive EE50.\nThe percentage protection of animals against MES-induced seizure were plotted against doses of AED alone (CBD or FEN) from Experiment A as log-probit linear regression analysis to derive ED50 and EE50.\nLoewe's equation of additivity was used to determine fractions of EE50 in the three ratios 1:3, 1:1 and 3:1 for each of the combinations CBD/FEN. Graphs were plotted in Prism, for CBD and FEN to determine relationships versus these exposures to determine actual doses for the combination study (Experiment B).\nDDI using these three-fixed dose-ratios of CBD/FEN was assessed using CalcuSyn v2.11 (Biosoft)."}, "[6]": {"system": "seizure frequency in patients with Dravet syndrome", "conditions": "low dose between 0.25 and 1.0 mg/kg/day; cited from earlier work"}}, "note": "Structures can show the parent of a compound that is named as a salt.", "data": [{"compound": "C=C(C)[C@@H]1CCC(CO)=C[C@H]1c1c(O)cc(CCCCC)cc1O", "note": "[7-OH-CBD, 7-hydroxy cannabidiol]", "values": [{"measurement": "agonist activity at 5-HT2B receptors", "setting": "[1]", "result": "Neither CBD nor 7-OH-CBD possess agonist activity"}, {"measurement": "Kb", "setting": "[2]", "result": 690, "unit": "nM"}, {"measurement": "7-OH-CBD concentration relative to that achieved by CBD", "setting": "[3]; clinical use of CBD", "result": "~50", "unit": "%"}]}, {"compound": "C=C(C)[C@@H]1CCC(C)=C[C@H]1c1c(O)cc(CCCCC)cc1O", "note": "[CBD, cannabidiol]", "values": [{"measurement": "agonist activity at 5-HT2B receptors", "setting": "[1]", "result": "Neither CBD nor 7-OH-CBD possess agonist activity"}, {"measurement": "Kb", "setting": "[2]", "result": 3700, "unit": "nM"}, {"measurement": "plasma concentration reached", "setting": "[3]; human clinical trials in epilepsy, plasma", "result": "up to 330 ng/mL"}, {"measurement": "molar plasma concentration", "setting": "[3]; human clinical use of CBD, plasma", "result": "~1", "unit": "µM"}, {"measurement": "interaction with the 5-HT2C receptor", "setting": "[4]", "result": "does not act upon the 5-HT2C receptors"}, {"measurement": "Drug alone dose for the given effect", "setting": "[5]; Effect 40%", "result": 28.46, "unit": "mg/kg"}, {"measurement": "Dose Reduction Index (DRI)", "setting": "[5]; Effect 40%", "result": 1.006, "unit": "fold"}, {"measurement": "Drug alone dose for the given effect", "setting": "[5]; Effect 80%", "result": 56.55, "unit": "mg/kg"}, {"measurement": "Dose Reduction Index (DRI)", "setting": "[5]; Effect 80%", "result": 2.704, "unit": "fold"}, {"measurement": "Drug alone dose for the given effect", "setting": "[5]; Effect 90%", "result": 77.15, "unit": "mg/kg"}, {"measurement": "Dose Reduction Index (DRI)", "setting": "[5]; Effect 90%", "result": 5.690, "unit": "fold"}, {"measurement": "doses with statistically significant (p<0.05) anticonvulsant effect vs vehicle", "setting": "[5]", "result": "50 to 100", "unit": "mg/kg"}, {"measurement": "effect on incidence of MES vs vehicle, drug alone", "setting": "[5]", "result": "no significant effect"}, {"measurement": "ED50", "setting": "[5]", "result": 33.2, "unit": "mg/kg"}]}, {"compound": "CCNC(C)Cc1cccc(C(F)(F)F)c1", "note": "(stereo not drawn) [FEN, fenfluramine hydrochloride, reference compound]", "values": [{"measurement": "effect on seizure frequency", "setting": "[6]", "result": "reduce seizure frequency"}, {"measurement": "Drug alone dose for the given effect", "setting": "[5]; Effect 40%", "result": 4.19, "unit": "mg/kg"}, {"measurement": "Dose Reduction Index (DRI)", "setting": "[5]; Effect 40%", "result": 3.639, "unit": "fold"}, {"measurement": "Drug alone dose for the given effect", "setting": "[5]; Effect 80%", "result": 8.26, "unit": "mg/kg"}, {"measurement": "Dose Reduction Index (DRI)", "setting": "[5]; Effect 80%", "result": 3.306, "unit": "fold"}, {"measurement": "Drug alone dose for the given effect", "setting": "[5]; Effect 90%", "result": 11.24, "unit": "mg/kg"}, {"measurement": "Dose Reduction Index (DRI)", "setting": "[5]; Effect 90%", "result": 2.921, "unit": "fold"}, {"measurement": "doses with statistically significant (p<0.05) anticonvulsant effect vs vehicle", "setting": "[5]", "result": 10, "unit": "mg/kg"}, {"measurement": "effect on incidence of MES vs vehicle, drug alone", "setting": "[5]", "result": "no significant effect"}, {"measurement": "ED50", "setting": "[5]", "result": 4.9, "unit": "mg/kg"}]}]}
